Measurements as given in ChEMBL document CHEMBL1137533, “Activity of 7-methyljuglone derivatives against Mycobacterium tuberculosis and as subversive substrates for mycothiol disulfide reductase” (Bioorg Med Chem, 2007).
In brackets after ≈: the same amount, converted by molar mass. Activity calls are given as the source filed them. No cut-off for these calls is given here.

Tests used:
[1] = test system: Vero; experiment: Cytotoxicity against Vero cells after 48 hrs by XTT method; format: cell-based; details: Chlorocebus sabaeus
[2] = test system: Mycobacterium tuberculosis; experiment: Antimycobacterial activity against Mycobacterium tuberculosis H37Rv; format: functional
[3] = Selectivity index, ratio of IC50 for Vero cells to MIC of Mycobacterial tuberculosis H37Rv; format: functional
[4] = test system: Mycobacterium tuberculosis; experiment: Activity of Mycobacterium tuberculosis mycothiol reductase
[5] = test system: Mycobacterium tuberculosis; experiment: Ratio of kcat to Km of Mycobacterium tuberculosis mycothiol reductase; parameters: unit not given here
[6] = test system: Mycobacterium tuberculosis; experiment: Antimycobacterial activity against Mycobacterium tuberculosis H37Rv at MIC; format: functional
[7] = test system: Mycobacterium tuberculosis; experiment: Activity of Mycobacterium tuberculosis mycothiol reductase upto 800 uM

Row | Compound | IC50 [1] [µg/mL] | MIC [2] [µg/mL] | Ratio [3] | Km [4] [µM] | kcat [4] [s⁻¹] | kcat/Km [5] | Activity [6] [%] | Activity [7]
1 | Cc1ccc2c(c1O)C(=O)C=CC2=O | 3.1 (≈ 16.5 µM) | 5 (≈ 26.6 µM) | 0.63 |  |  |  |  | 
2 | CC(=O)Oc1cc(C)cc2c1C(=O)C=CC2=O | 6 (≈ 26.1 µM) | 2.5 (≈ 10.9 µM) | 2.4 | 389 | 3.17 | 8.15e+07 | 99.9 | 
3 | CC(=O)Oc1cc(C)c(Cl)c2c1C(=O)C=CC2=O | 6.3 (≈ 23.8 µM) | 10 (≈ 37.8 µM) | 0.63 |  |  |  | 99.9 | 
4 | COc1cc(C)cc2c1C(=O)C=CC2=O | 5.8 (≈ 28.7 µM) | 15 (≈ 74.2 µM) | 0.39 |  |  |  | 99.9 | 
5 | CC(=O)Oc1cc(OC(C)=O)c2c(OC(C)=O)c(C)cc(Cl)c2c1OC(C)=O | 149 (≈ 365 µM) | > 20 |  |  |  |  | 99.9 | 
6 | COc1cc(C)c(Cl)c2c1C(=O)C=CC2=O | 7.7 (≈ 32.5 µM) | > 20 |  | 435 | 0.142 | 3.3e+06 | 99.9 | 
7 | CCOc1c(C)cc(Cl)c2c1C(=O)C=CC2=O | 12.5 (≈ 49.9 µM) | 15 (≈ 59.8 µM) | 0.83 |  |  |  | 99.9 | 
8 | CCOc1cc(C)cc2c1C(=O)C=CC2=O | 6.3 (≈ 29.1 µM) | 15 (≈ 69.4 µM) | 0.42 |  |  |  | 99.9 | 
9 | CCOc1cc(C)c(Cl)c2c1C(=O)C=CC2=O | 36.1 (≈ 144 µM) | > 20 |  |  |  |  | 99.9 | 
10 | CC(=O)Oc1cc(OC(C)=O)c2c(OC(C)=O)cc(C)cc2c1OC(C)=O | 17.2 (≈ 45.9 µM) | > 20 |  |  |  |  | 99.9 | 
11 | COc1c(C)cc(Cl)c2c1C(=O)C=CC2=O | 8 (≈ 33.8 µM) | 15 (≈ 63.4 µM) | 0.54 |  |  |  | 99.9 | 
12 | CC(=O)Oc1cc(OC(C)=O)c2c(OC(C)=O)cc(C)c(Cl)c2c1OC(C)=O | 27.8 (≈ 68 µM) | > 20 |  |  |  |  | 99.9 | 
13 | CC(=O)Oc1c(C)cc(Cl)c2c1C(=O)C=CC2=O | 21.1 (≈ 79.7 µM) | 10 (≈ 37.8 µM) | 2.1 |  |  |  | 99.9 | 
14 | Cc1cc(O)c2c(c1)C(=O)C(O)=CC2=O | 3.1 (≈ 15.2 µM) | 5 (≈ 24.5 µM) | 0.63 |  |  |  | 99.9 | 
15 | Cc1cc(O)c2c(c1Br)C(=O)C=CC2=O [5-BROMO-8-HYDROXY-6-METHYLNAPHTHALENE-1,4-DIONE] | 3.6 (≈ 13.5 µM) | 5 (≈ 18.7 µM) | 0.71 |  |  |  |  | 
16 | Cc1cc(O)c2c(c1Cl)C(=O)C=CC2=O [5-CHLORO-8-HYDROXY-6-METHYLNAPHTHALENE-1,4-DIONE] | 2.5 (≈ 11.2 µM) | 10 (≈ 44.9 µM) | 0.25 | 233 | 0.212 | 9.1e+06 |  | 
17 | Cc1cc(O)c2c(c1F)C(=O)C=CC2=O [5-FLUORO-8-HYDROXY-6-METHYLNAPHTHALENE-1,4-DIONE] | 7.6 (≈ 36.9 µM) | 10 (≈ 48.5 µM) | 0.76 |  |  |  |  | 
18 | Cc1cc(Cl)c2c(c1O)C(=O)C=CC2=O [8-CHLORO-5-HYDROXY-6-METHYLNAPHTHALENE-1,4-DIONE] | 4.6 (≈ 20.7 µM) | 5 (≈ 22.5 µM) | 0.92 | 36 | 0.592 | 1.64e+08 | 99.9 | 
19 | Cc1cc(O)c2c(c1)C(=O)C(c1c(C)cc3c(c1O)C(=O)C=CC3=O)=CC2=O [DIOSPYRIN] | 17.8 (≈ 47.5 µM) | 8 (≈ 21.4 µM) | 2.2 | 33 | 0.118 | 3.57e+07 |  | 
20 | CC[C@@H](CO)NCCN[C@@H](CC)CO [ETHAMBUTOL] | > 150 | 2 (≈ 9.79 µM) | >75 |  |  |  | 99.9 | 
21 | NNC(=O)c1ccncc1 [ISONIAZID] | > 200 | 0.2 (≈ 1.46 µM) | >1000 |  |  |  | 99.9 | 
22 | CC1=CC(=O)c2ccccc2C1=O [MENADIONE] | 6.5 (≈ 37.8 µM) | 5 (≈ 29 µM) | 1.3 | 483 | 0.732 | 1.52e+07 | 99.9 | 
23 | O=C1C=CC(=O)c2ccccc21 [NAPHTHOQUINONE] | 1.2 (≈ 7.59 µM) | 1 (≈ 6.32 µM) | 1.19 | 324 | 1.09 | 3.36e+07 | 99.9 | 
24 | Cc1cc(O)c2c(c1)C(=O)C=C(c1c(C)cc(O)c3c1C(=O)C=CC3=O)C2=O [NEODIOSPYRIN] | 32 (≈ 85.5 µM) | 10 (≈ 26.7 µM) | 3.2 | 63 | 0.308 | 4.88e+07 |  | 
25 | Cc1cc(O)c2c(c1)C(=O)C=CC2=O [RAMENTACEONE] | 15.1 (≈ 80.2 µM) | 0.5 (≈ 2.66 µM) | 30.22 | 254 | 2.37 | 9.31e+07 |  | 
26 | Cc1cc(O)c2c(c1)[C@H](O)CCC2=O [SHINANOLONE] |  | > 100 |  |  |  |  | 99.9 | inactive
27 | CN[C@@H]1[C@H](O[C@H]2[C@H](O[C@H]3[C@H](O)[C@@H](O)[C@H](N=C(N)N)[C@@H](O)[C@@H]3N=C(N)N)O[C@@H](C)[C@]2(O)C=O)O[C@@H](CO)[C@H](O)[C@H]1O [STREPTOMYCIN] | > 120 | 1 (≈ 1.72 µM) | >120 |  |  |  | 99.9 | 
